In paper PMC10779222, “Copper(II) Complexes with 1-(Isoquinolin-3-yl)heteroalkyl-2-ones: Synthesis, Structure and Evaluation of Anticancer, Antimicrobial and Antioxidant Potential” (International Journal of Molecular Sciences, 2023):

What was measured:
[1] = test system: CCD-1059Sk (human normal skin fibroblasts); test: MTT cytotoxicity assay on non-cancerous fibroblasts; type: cell-based; settings: 24 h incubation, non-cancerous cells
Protocol: Cytotoxic activity of the investigated compounds was evaluated against T98G (glioblastoma), HepG2 (hepatoma), LS-180 (colon cancer) and A375 (melanoma) cell lines. Human normal skin fibroblasts, CCD-1059Sk (CRL-2072), were used as reference (non-cancerous) cells. All of the cell lines were obtained from American Type Culture Collection (ATCC; Manassas, VA, USA). A375, T98G and CCD-1059Sk cells were cultured in Dulbecco’s Modified Eagle’s Medium (DMEM) (Sigma Aldrich, St. Louis, MO, USA) supplemented with 10% FBS, penicillin (100 U/mL) and streptomycin (100 μg/mL). LS-180 and HepG2 cells were cultured in Eagle’s Minimum Essential Medium supplemented with 10% FBS, penicillin (100 U/mL) and streptomycin (100 μg/mL). All of the cells were maintained at 37 °C in a humidified atmosphere of 5% CO2. The compounds were dissolved in DMSO in order to obtain stock solutions. At the day of the experiment, the suspension of cells (1 × 10^5 cells/mL) was distributed onto 96-well plates at a volume of 100 μL/well. After attachment, the cells were treated with the increased concentrations of the tested compounds in medium containing 2% FBS and incubated for 24 h. Then, the medium was removed from wells, and cells were rinsed with PBS. Afterwards, 15 μL of MTT working solution (5 mg/mL in PBS) was added to each well, and the plates were incubated for 3 h. Subsequently, 100 μL of 10% SDS solution was added to each well in order to dissolve the precipitated formazan crystals. After overnight incubation at 37 °C, the absorbance of the obtained solution was measured at λ = 570 nm using a microplate reader (Epoch, BioTek Instruments, Inc., Winooski, VT, USA). At least two independent experiments were performed in triplicate. […] IC50 values of the investigated derivatives and positive control (etoposide) were calculated using the IC50 online calculator [101].

T98G cells = settings: C2 at 0.25 µg/mL (non-cytotoxic), drugs at IC50 or 100 µg/mL, 24 h, MTT
Protocol: Next, T98G or HepG2 cells were incubated for 24 h with medium containing a mixture of the respective drugs mixed with the highest non-toxic concentration of C2 (CX). The viability of cells was evaluated using MTT assay, as described above. ANOVA analysis (with Tukey’s post hoc test) was performed in order to examine the possible interactions between compound C2 (CX) and ETO, CIS, 5-FU and TMZ.

[2] = DPPH radical scavenging assay; settings: ±SD; 30 min, room temperature
Protocol: The DPPH radical scavenging assay of samples was performed with ascorbic acid as a positive control. Briefly, 100 μL of different concentrations of the complexes, dissolved in DMSO, was mixed with 100 μL of 0.06 mM DPPH methanolic solution and incubated at room temperature in the dark for 30 min. The change in absorbance at λ = 517 nm was analyzed with the use of a 96-well microplate reader (Epoch, BioTek System, Winooski, VT, USA). The control was composed of DPPH and DMSO. DPPH inhibition was calculated according to the following equation:DPPH Inhibition (%) = [(Acontrol − Asample)/Acontrol] × 100% The radical scavenging activity of the samples was shown as the IC50 value (the concentration of the analyzed samples that caused a decrease in the non-reduced form of the DPPH radical by 50%).

[3] = ABTS radical scavenging assay; settings: ±SD; 10 min, 30 °C
Protocol: The ABTS radical scavenging assay of samples (ligands or complexes) was performed with ascorbic acid as a positive control. Briefly, 30 μL of different concentrations of the samples, dissolved in DMSO, was mixed with 170 μL of ABTS solution (2 mM ABTS diammonium salt, 3.5 mM potassium persulfate) and completed with water to a final volume of 300 μL. ABTS solution with DMSO was used as a control. […] ABTS inhibition was calculated according to the following equation:ABTS Inhibition (%) = [(Acontrol − Asample)/Acontrol] × 100% The radical scavenging activity of the samples was shown as the IC50 value (the concentration of the analyzed samples that caused a decrease in the non-reduced form of the ABTS radical by 50%).

O=C1NCCN1c1cc2ccccc2cn1.O=C1NCCN1c1cc2ccccc2cn1.[Cl][Cu][Cl] [C2, Dichloro{bis[1-(Isoquinolin-3-yl)imidazolidin-2-one]}copper(II)]
IC50 ± SD, CCD-1059-Sk [1]: 21.86 ± 1.03 µg/mL | effect on cytotoxicity of anticancer drugs, T98G (T98G cells): statistically significantly improved the cytotoxic effects of ETO, 5-FU and TMZ | IC50 DPPH [2]: 401.52 ± 2.48 µg/mL | IC50 ABTS [3]: 107.14 ± 1.42 µg/mL
